Drawing on PubChem BioAssay (NCI), this text covers GI50 and TGI for seven molecules.

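How tested: cells in 96-well plates exposed to compound for 48 hours at five concentrations. GI50 marks 50% less growth. TGI denotes the concentration required for complete inhibition of growth.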

Among the test systems are HCC-2998 colon; T-47D breast; TK-10 renal; SF-295 CNS; IGROV1 ovarian; NCI-H522 lung; UACC-257 melanoma; K-562 leukemia; EKVX NSCLC; MOLT-4 leukemia.
Holding throughout (test): NCI-60 cell line screen, 48 h

For `CC[C@H]1[C@@H]2C=C[C@@H]3[C@H]4C/C=C\C(=O)NCCC[C@@H]5NC(=O)/C(=C(O)/C=C/[C@@H]4C[C@@H]3[C@H]2C[C@H]1C)C5=O`, the GI50 in the experiment on HCC-2998 colon is 1.8 µM; in the experiment with T-47D breast, 1.7 µM; in the experiment with TK-10 renal, 1.35 µM; with SF-295 CNS, 1.42 µM; in the experiment with IGROV1 ovarian, 0.252 µM; in the experiment with NCI-H522 lung, 6.7 µM. Besides, the GI50 in the experiment with UACC-257 melanoma is 1.71 µM; in the experiment on K-562 leukemia it was 1.96 µM; in the experiment on EKVX NSCLC, 1.45 µM; in the experiment on MOLT-4 leukemia, 1.48 µM. Also, the TGI in the experiment with HCC-2998 colon worked out at 3.62 µM; with T-47D breast it was 4.1 µM; in the experiment on TK-10 renal, 2.71 µM; with SF-295 CNS, 2.8 µM; in the experiment on IGROV1 ovarian, 0.756 µM; in the experiment with NCI-H522 lung, 15.7 µM. Besides, the TGI with UACC-257 melanoma came out at 3.49 µM; in the experiment on K-562 leukemia, 4.24 µM; in the experiment on EKVX NSCLC, 3.31 µM; in the experiment on MOLT-4 leukemia it was 3.47 µM.

In the case of `COc1ccc(/C=C2/N=C(c3ccccc3)N(c3c(C)n(C)n(-c4ccccc4)c3=O)C2=O)cc1OC`, the GI50 was above 100 µM in the experiment on HCC-2998 colon; 77.5 µM with T-47D breast; above 100 µM in the experiment with TK-10 renal; above 100 µM in the experiment on SF-295 CNS; above 100 µM with IGROV1 ovarian; above 100 µM with NCI-H522 lung. Also, the GI50 with UACC-257 melanoma is above 100 µM; with K-562 leukemia, above 100 µM; in the experiment on EKVX NSCLC it was above 100 µM; in the experiment on MOLT-4 leukemia, 78.3 µM. For the same molecule, the TGI in the experiment with HCC-2998 colon, in the experiment with T-47D breast, in the experiment with TK-10 renal, in the experiment on SF-295 CNS, in the experiment on IGROV1 ovarian and in the experiment on NCI-H522 lung was above 100 µM in each case. For the same molecule, the TGI with UACC-257 melanoma, with K-562 leukemia, in the experiment with EKVX NSCLC and in the experiment with MOLT-4 leukemia was above 100 µM in each case.

As to `COc1cc2c(cc1OCCCNC(=O)c1cccc3c(=O)c4ccccc4[nH]c13)N=C[C@@H]1CCCN1C2=O`, the GI50 in the experiment on HCC-2998 colon was below 0.0103 µM; in the experiment with T-47D breast it was below 0.01 µM; in the experiment on TK-10 renal, below 0.0434 µM; in the experiment on SF-295 CNS, below 0.0508 µM; with UACC-257 melanoma it was below 0.01 µM; with EKVX NSCLC, 0.0166 µM. Also, the GI50 with MOLT-4 leukemia is 4.03 µM. Besides, the TGI in the experiment with HCC-2998 colon is 0.0321 µM; in the experiment with T-47D breast, 29.6 µM; in the experiment with TK-10 renal it was 2.66 µM; in the experiment with SF-295 CNS, 4.46 µM; in the experiment on IGROV1 ovarian, above 33.5 µM; with NCI-H522 lung it was above 33.6 µM. The TGI in the experiment with UACC-257 melanoma was 0.759 µM; in the experiment with K-562 leukemia, above 100 µM; with EKVX NSCLC, 0.14 µM; in the experiment with MOLT-4 leukemia, above 100 µM.

Turning to `C[C@@H]1CC[C@@H]2[C@@H]1[C@H](OC(=O)/C=C/c1ccccc1)[C@]1(C3CCCCC3)C[C@@H](OC(=O)CO)[C@@]2(C)O1`, the GI50 was 1.94 µM in the experiment with HCC-2998 colon; 2.64 µM in the experiment with T-47D breast; 9.17 µM in the experiment with TK-10 renal; 3.6 µM in the experiment on SF-295 CNS; 3.84 µM with IGROV1 ovarian; 2.4 µM with NCI-H522 lung. The GI50 with UACC-257 melanoma is 5.1 µM; in the experiment with K-562 leukemia, 3.88 µM; with EKVX NSCLC, 3.47 µM; in the experiment on MOLT-4 leukemia, 2.61 µM. Besides, the TGI is 3.92 µM in the experiment on HCC-2998 colon; 10.7 µM in the experiment with T-47D breast; 22.5 µM with TK-10 renal; 13.1 µM in the experiment on SF-295 CNS; 15 µM in the experiment on IGROV1 ovarian; 6.75 µM in the experiment on NCI-H522 lung. Further, the TGI with UACC-257 melanoma was determined as 18.7 µM; with K-562 leukemia it was 14.6 µM; in the experiment on EKVX NSCLC it was 15.6 µM; with MOLT-4 leukemia, 6.07 µM.

Consider `COc1cc(Cn2c(-c3ccccc3)c(Cl)c3c2-c2oncc2CC3)cc(OC)c1`, for which the GI50 in the experiment with HCC-2998 colon was 9.97 µM; with T-47D breast it was 17.5 µM; in the experiment with TK-10 renal, 26.5 µM; in the experiment on SF-295 CNS it was 3.05 µM; with IGROV1 ovarian, 4.89 µM; with NCI-H522 lung, 2.15 µM. Also, the GI50 was 39.3 µM with UACC-257 melanoma, 3.08 µM in the experiment with K-562 leukemia, 4.97 µM in the experiment with EKVX NSCLC and 3.43 µM in the experiment on MOLT-4 leukemia. For the same molecule, the TGI in the experiment on HCC-2998 colon was above 100 µM; in the experiment on T-47D breast it was above 100 µM; in the experiment on TK-10 renal, above 100 µM; in the experiment on SF-295 CNS, above 100 µM; with IGROV1 ovarian it was 21.7 µM; in the experiment on NCI-H522 lung it was 10.1 µM. The TGI in the experiment on UACC-257 melanoma, in the experiment on K-562 leukemia, with EKVX NSCLC and in the experiment on MOLT-4 leukemia was above 100 µM throughout.

With `COc1cc(-n2cc(-c3ccc(F)cc3)[nH]c2=O)cc(OC)c1OC`, the GI50 in the experiment on HCC-2998 colon, in the experiment on T-47D breast, with TK-10 renal, in the experiment on SF-295 CNS, in the experiment with IGROV1 ovarian and in the experiment on NCI-H522 lung was above 100 µM in each case. Besides, the GI50 in the experiment on UACC-257 melanoma, in the experiment with K-562 leukemia, in the experiment with EKVX NSCLC and with MOLT-4 leukemia was above 100 µM throughout. Moreover, the TGI in the experiment with HCC-2998 colon, in the experiment with T-47D breast, with TK-10 renal, with SF-295 CNS, in the experiment on IGROV1 ovarian and in the experiment with NCI-H522 lung was above 100 µM each time. Moreover, the TGI with UACC-257 melanoma, in the experiment with K-562 leukemia, in the experiment with EKVX NSCLC and with MOLT-4 leukemia was above 100 µM in each case.

As to `Clc1ccc2[nH]cc(-c3nnnn3-c3ccccc3)c2c1`, the GI50 with HCC-2998 colon is 5.32 µM; in the experiment with T-47D breast it was above 45.3 µM; with TK-10 renal, 7.29 µM; in the experiment with SF-295 CNS, 13.3 µM; with IGROV1 ovarian, 29.4 µM; in the experiment on NCI-H522 lung, 18.7 µM. For the same molecule, the GI50 in the experiment with UACC-257 melanoma was 24.9 µM; with K-562 leukemia it was 8.58 µM; with EKVX NSCLC it was 28.3 µM; in the experiment with MOLT-4 leukemia it was 11 µM. Also, the TGI with HCC-2998 colon was 20.1 µM; in the experiment on T-47D breast, above 100 µM; in the experiment on TK-10 renal, above 31.6 µM; in the experiment on SF-295 CNS, 52.7 µM; in the experiment with IGROV1 ovarian, above 77 µM; with NCI-H522 lung it was above 92.5 µM. Moreover, the TGI in the experiment on UACC-257 melanoma was 71 µM; in the experiment on K-562 leukemia, above 67.3 µM; with EKVX NSCLC, above 100 µM; in the experiment on MOLT-4 leukemia, above 53 µM.
